Columns and labels:
Assay type in all cases: in vivo
[1] = test system: Radiation Induced Nausea and Vomiting; assay: Inhibition of Radiation Induced Nausea and Vomiting (X-ray, ferret); conditions: for No. of animals completely protected/No. of animals used: 2 to 4 minutes before irradiation; for Latency period, Group Mean (±s.e.m.): taken as 120 minutes in animals completely protected, vehicle 19.4 (±1.1); for No. of emetic episodes, Group Mean (±s.e.m.): vehicle 28.8 (±1.3)
Text: 3. Inhibition of Radiation Induced Nausea and Vomiting.
Ferrets with surgically implanted indwelling venous cannulae were restrained in a purposely constructed perspex box, and exposed to ionising radiation from an X-ray source. The X-ray source (Machlett, Model OEG-50, Tungsten Anode) was approximately 25 cm from the upper surface of the animal, and was operated at 50 Kv and 20 mA through a 1 mm beryllium window and 0.18 mm aluminium filtration. The whole body of each animal was irradiated for 10.4 minutes at a dose rate of 300 rad/minute. At the completion of irradiation animals were put back in their pens and observed for at least 120 minutes. The time from the start of irradiation to the first emetio episode (latency period), and the number of emetic episodes were recorded. […] The test compound was injected intravenously 2 to 4 minutes before the start of irradiation.

[2] = test system: arrhythmias after coronary ligation; assay: Antiarrhythmic Activity, dog coronary ligation model; conditions: for reduction of ectopic beats on day 2 (max. effects) / antagonism of arrhythmias on day 2 (max. effects): 48 h after coronary ligation; for reduction of ectopic beats on day 1 (max. effects) / antagonism of arrhythmias on day 2 (max. effects): 2. dog
Procedure: 4. Antiarrhythmic Activity
The compound of Example 9 was tested for antiarrhythmic activity in the dog coronary ligation model (method: Harris, A., Circulation Res. 1, 1318-1328, 1950).

[3] = test system: von Bezold-Jarisch reflex evoked by 5HT; assay: Antagonism of the von Bezold-Jarisch reflex evoked by 5HT in the anaesthetised rat; conditions: iv, anaesthetised male rats, i.v., 5-HT 6-20 μg/kg i.v., heart rate, read-out: ED50 (reduction of the 5HT-evoked response to 50% of the control response)
Procedure: 1. Antagonism of the von Bezold-Jarisch reflex
The compounds were evaluated for antagonism of the von Bezold-Jarisch reflex evoked by 5HT in the anaesthetised rat according to the following method:
Male rats 250-350 g, were anaesthetised with urethane (1.25 g/kg intraperitoneally) and blood pressure and heart rate recorded as described by Fozard J. R. et al., J. Cardiovasc. Pharmacol. 2, 229-245 (1980). A submaximal dose of 5-HT (6-20 μg/kg) was given repeatedly by the intravenous route and changes in heart rate quantified. Test Compounds were given intravenously and the concentration required to reduce the 5HT-evoked response to 50% of the control response (ED50) was then determined.

[4] = test system: emetic response (cisplatin); assay: Inhibition of Chemotherapy Induced Nausea and Vomiting (cisplatin, ferret); conditions: administered twice, cisplatin 10 mg/kg i.v., 5 hours
Text: 2. Inhibition of Chemotherapy Induced Nausea and Vomiting
Adult male ferrets (initial body weight 1.3-1.8 kg) were individually housed, fed once daily (200 g Chum Puppy Food plus 50 g Lab Diet A) and were supplied with water ad libitum. Additionally, each animal was given 1/2 pint of milk daily during an acclimatization period.
To facilitate intravenous administration of drugs, a chronic indwelling catheter was surgically implanted into the jugular vein using a modification of the technique described by Florczyk and Schurig, 1981 (Pharmacol. Biochem. Behav., 14, 255-257). Prior to surgery each animal was sedated with ketamine hydrochloride (40 mg/animal intramuscularly) and anaesthetised with a halothane-N2 O--O2 mixture. A four day recovery period was allowed before commencement of an experiment.
For each group of animals, a preliminary study was carried out to establish an intravenous dose level of cisplatin which would give a consistent and reproducible emetic response. The appropriate dose of test compound was administered intravenously twice to each animal; 30 minutes before and 45 minutes after dosing with cisplatin. Running controls received vehicle and cisplatin only.
A single emetic response commenced when an animal assumed a characterrc posture with retching and was concluded when either vomitus was expelled or was present in the mouth as evidenced by a chewing movement.
All solutions were prepared in water for injection B. P. Cisplatin was prepared from vials of Neoplatin for injection (Mead Johnson; dose volume of […]).

In the case of `COc1cc(N)c(Cl)cc1C(=O)NC1CCN2CCCC1C2` (racemic) [Example 9, (±)4-amino-5-chloro-2-methoxy-N-(4[1-azabicyclo-3,3,1]-nonyl])-benzamide], the “No. of animals completely protected/No. of animals used” value ([1]; 0.25 mg/kg i.v.) is reported as 1/4, the “Latency period, Group Mean (±s.e.m.)” value ([1]; 0.25 mg/kg i.v., P < 0.05) is reported as 64.0 (±18.7) and the “No. of emetic episodes, Group Mean (±s.e.m.)” value ([1]; 0.25 mg/kg i.v., P < 0.05) is reported as 7.8 (±3.3). The “No. of animals completely protected/No. of animals used” value ([1]; 1.25 mg/kg i.v.) was 2/5, the “Latency period, Group Mean (±s.e.m.)” value ([1]; 1.25 mg/kg i.v., P < 0.01) was 79.2 (±16.7) and the “No. of emetic episodes, Group Mean (±s.e.m.)” value ([1]; 1.25 mg/kg i.v., P < 0.01) was 1.2 (±0.6). For the same molecule, the “effect on day 1-arrhythmias (max. effects)” value ([2]; 1. dog, 24 h after coronary ligation, 0.5-3.0 mg/kg) was “no effect”, the “reduction of ectopic beats on day 2 (max. effects)” value ([2]; 1. dog, 2.0 mg/kg) was 41% and the “reduction of ectopic beats on day 2 (max. effects)” value ([2]; 1. dog, 3.0 mg/kg) was 76%. For the same molecule, the “reduction of ectopic beats on day 1 (max. effects)” value (from here on “reduction … on day 1 (max. effects)”) ([2]; 24 h after coronary ligation, 20 mg/kg (so in the source)) was 69%, the “reduction … on day 1 (max. effects)” value ([2]; 24 h after coronary ligation, 1,0 mg/kg) was 63% and the “reduction … on day 1 (max. effects)” value ([2]; 24 h after coronary ligation, 3,0 mg/kg) was 82%. For the same molecule, the “antagonism of arrhythmias on day 2 (max. effects)” value ([2]; 0.5 mg/kg) was 89%, the “antagonism of arrhythmias on day 2 (max. effects)” value ([2]; 1.0 mg/kg) was 100% and the ED50 [3] was 3.3 µg/kg. The “No. of animals completely protected/No. of animals used” value ([4]; 0.65 mg/kg i.v.) was 1/6, the “No. of animals completely protected/No. of animals used” value ([4]; 1.25 mg/kg i.v.) was 4/6 and the “No. of animals completely protected/No. of animals used” value ([4]; 2.5 mg/kg i.v.) was 3/6.

Source: US4786643A, “Treatment of migraine, cluster headaches and trigeminal neuralgia” (Beecham Group p.l.c., priority 1985, dated 1988)
